Experimental data as given in ChEMBL document CHEMBL4814047, “Design, synthesis and biological activity of N-(amino)piperazine-containing benzothiazinones against Mycobacterium tuberculosis” (Eur J Med Chem, 2021).
Converted amounts (≈) assume the structure as drawn.

Experiments:
[1] = system: Mycobacterium tuberculosis; assay: Antimycobacterial activity against Mycobacterium tuberculosis H37Rv ATCC 27294 incubated for 7 days by microplate alamar blue assay; assay type: functional; conditions: H37Rv ATCC 27294, 168 h, time 7 day
[2] = Cytotoxicity against African green monkey Vero cells incubated for 72 hrs by MTT assay; assay type: cell-based; conditions: chlorocebus sabaeus
hERG (KCNH2) = hERG (KCNH2) (Homo sapiens, UniProt Q12809); assay: Inhibition of human ERG expressed in HEK293 cells at 10 uM by whole cell patch clamp method relative to control; assay type: cell-based; conditions: HEK293 cells expressing hERG
hERG (KCNH2), sequence (Q12809 whole entry): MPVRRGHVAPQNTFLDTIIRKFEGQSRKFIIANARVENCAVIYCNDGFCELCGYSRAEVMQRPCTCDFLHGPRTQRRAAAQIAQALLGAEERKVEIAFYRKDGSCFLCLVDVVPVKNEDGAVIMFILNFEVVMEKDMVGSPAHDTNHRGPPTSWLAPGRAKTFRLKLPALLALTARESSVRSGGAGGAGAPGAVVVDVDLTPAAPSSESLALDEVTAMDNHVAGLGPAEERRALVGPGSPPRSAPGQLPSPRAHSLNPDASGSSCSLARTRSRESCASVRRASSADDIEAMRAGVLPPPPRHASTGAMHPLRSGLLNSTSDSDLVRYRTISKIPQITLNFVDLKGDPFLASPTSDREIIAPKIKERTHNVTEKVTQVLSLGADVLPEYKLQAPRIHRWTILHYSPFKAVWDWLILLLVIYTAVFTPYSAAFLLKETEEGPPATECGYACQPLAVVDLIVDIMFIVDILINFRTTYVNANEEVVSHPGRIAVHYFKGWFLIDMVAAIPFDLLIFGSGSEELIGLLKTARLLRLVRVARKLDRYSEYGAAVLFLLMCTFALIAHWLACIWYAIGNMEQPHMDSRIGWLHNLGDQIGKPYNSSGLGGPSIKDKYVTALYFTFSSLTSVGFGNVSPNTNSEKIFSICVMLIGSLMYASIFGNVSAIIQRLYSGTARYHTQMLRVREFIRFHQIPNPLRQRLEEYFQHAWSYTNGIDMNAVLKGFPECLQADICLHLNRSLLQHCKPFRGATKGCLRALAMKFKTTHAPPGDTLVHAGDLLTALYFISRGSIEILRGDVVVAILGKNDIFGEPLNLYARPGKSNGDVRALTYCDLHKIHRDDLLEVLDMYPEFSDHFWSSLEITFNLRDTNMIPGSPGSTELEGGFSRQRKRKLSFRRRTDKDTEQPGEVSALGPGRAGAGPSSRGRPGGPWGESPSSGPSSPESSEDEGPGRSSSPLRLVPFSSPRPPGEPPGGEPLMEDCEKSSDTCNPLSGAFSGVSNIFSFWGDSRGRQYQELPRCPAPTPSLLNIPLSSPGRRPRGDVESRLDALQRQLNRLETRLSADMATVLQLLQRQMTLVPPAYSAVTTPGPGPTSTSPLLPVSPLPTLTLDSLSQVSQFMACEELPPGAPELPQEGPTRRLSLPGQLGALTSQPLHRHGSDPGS

[3] = Half life in ICR mouse at 25 mg/kg, po measured upto 24 hrs by HPLC analysis; assay type: ADME, organism-based; conditions: in vivo
[4] = Tmax in ICR mouse at 25 mg/kg, po measured upto 24 hrs by HPLC analysis; assay type: ADME, organism-based; conditions: in vivo
[5] = Cmax in ICR mouse at 25 mg/kg, po measured upto 24 hrs by HPLC analysis; assay type: ADME, organism-based; set-up: route oral, dose 25 mg/kg, time <=24; conditions: in vivo
[6] = AUC (0 to infinity) in ICR mouse at 25 mg/kg, po measured upto 24 hrs by HPLC analysis; assay type: ADME, organism-based; set-up: route oral, dose 25 mg/kg, time <=24; conditions: in vivo
[7] = MRT in ICR mouse at 25 mg/kg, po measured upto 24 hrs by HPLC analysis; assay type: ADME, organism-based; conditions: in vivo

Compound | MIC [1] [µg/mL] | CC50 at 72 h [2] [µg/mL] | further results
O=c1nc(N2CCN(NCc3cccnc3)CC2)sc2c([N+](=O)[O-])cc(C(F)(F)F)cc12 | 0.228 (≈ 0.489 µM) | – | –
CON=C1CCC(CNN2CCN(c3nc(=O)c4cc(C(F)(F)F)cc([N+](=O)[O-])c4s3)CC2)CC1 (stereo unspecified) | 0.057 (≈ 0.111 µM) | – | –
O=c1nc(N2CCN(NCCC3CCCCC3)CC2)sc2c([N+](=O)[O-])cc(C(F)(F)F)cc12 | < 0.016 | > 64 | inhibition at 10 µM (hERG (KCNH2)): 76.4%
NN1CCN(c2nc(=O)c3cc(C(F)(F)F)cc([N+](=O)[O-])c3s2)CC1 | 0.941 (≈ 2.51 µM) | – | –
O=c1nc(N2CCN(NCc3ccc(Br)cc3)CC2)sc2c([N+](=O)[O-])cc(C(F)(F)F)cc12 | < 0.016 | > 64 | –
O=c1nc(NN2CCN(CC3CCCCC3)CC2)sc2c([N+](=O)[O-])cc(C(F)(F)F)cc12 | > 1 | – | –
O=C(NN1CCN(c2nc(=O)c3cc(C(F)(F)F)cc([N+](=O)[O-])c3s2)CC1)c1ccc(OC(F)(F)F)cc1 | 0.965 (≈ 1.71 µM) | – | –
O=c1nc(N2CCN(NCc3cccc(C(F)(F)F)c3)CC2)sc2c([N+](=O)[O-])cc(C(F)(F)F)cc12 | < 0.016 | > 64 | –
O=c1nc(N2CCN(Nc3ccc(OC(F)(F)F)cc3)CC2)sc2c([N+](=O)[O-])cc(C(F)(F)F)cc12 | < 0.016 | > 64 | inhibition at 10 µM (hERG (KCNH2)): 55.5%
COc1ccc(CNN2CCN(c3nc(=O)c4cc(C(F)(F)F)cc([N+](=O)[O-])c4s3)CC2)cc1 | < 0.016 | > 64 | –
O=c1nc(N2CCN(/N=C/c3ccc(OC(F)(F)F)cc3)CC2)sc2c([N+](=O)[O-])cc(C(F)(F)F)cc12 | < 0.016 | > 64 | inhibition at 10 µM (hERG (KCNH2)): 88.2%
O=c1nc(N2CCN(N(CC3CCCC3)CC3CCCC3)CC2)sc2c([N+](=O)[O-])cc(C(F)(F)F)cc12 | 0.0803 (≈ 0.149 µM) | – | –
O=c1nc(N2CCN(NCc3cc(F)cc(F)c3)CC2)sc2c([N+](=O)[O-])cc(C(F)(F)F)cc12 | < 0.016 | > 64 | –
CN(CC1CCCCC1)N1CCN(c2nc(=O)c3cc(C(F)(F)F)cc([N+](=O)[O-])c3s2)CC1 | < 0.016 | > 64 | inhibition at 10 µM (hERG (KCNH2)): 54.6%
O=c1nc(N2CCN(NCC3CCCCC3)CC2)sc2c([N+](=O)[O-])cc(C(F)(F)F)cc12 | < 0.016 | 29.3 (≈ 62.1 µM) | inhibition at 10 µM (hERG (KCNH2)): 64.4%
Cc1cccc(F)c1CNN1CCN(c2nc(=O)c3cc(C(F)(F)F)cc([N+](=O)[O-])c3s2)CC1 | < 0.016 | > 64 | –
O=c1nc(N2CCN(NS(=O)(=O)C3CCCCC3)CC2)sc2c([N+](=O)[O-])cc(C(F)(F)F)cc12 | > 1 | – | –
O=c1nc(N2CCN(CC3CCCCC3)CC2)sc2c([N+](=O)[O-])cc(C(F)(F)F)cc12 [MACOZINONE] | < 0.016 | > 64 | –
O=c1nc(N2CCN(NCc3ccc(OC(F)(F)F)cc3)CC2)sc2c([N+](=O)[O-])cc(C(F)(F)F)cc12 | < 0.016 | > 64 | inhibition at 10 µM (hERG (KCNH2)): 71.1%
O=C(C1CCCCC1)N1CCN(Nc2nc(=O)c3cc(C(F)(F)F)cc([N+](=O)[O-])c3s2)CC1 | > 1 | – | –
CN(c1ccc(OC(F)(F)F)cc1)N1CCN(c2nc(=O)c3cc(C(F)(F)F)cc([N+](=O)[O-])c3s2)CC1 | < 0.016 | > 64 | inhibition at 10 µM (hERG (KCNH2)): 45.6%; half-life [3]: 3.6 h; Tmax [4]: 0.667 h; Cmax [5]: 1100 ng/mL; AUC(0-inf) [6]: 4700 ng·h/mL; MRT [7]: 4.34 h
CON=C1CCC(N(C)N2CCN(c3nc(=O)c4cc(C(F)(F)F)cc([N+](=O)[O-])c4s3)CC2)CC1 (stereo unspecified) | < 0.016 | > 64 | inhibition at 10 µM (hERG (KCNH2)): 22.7%; half-life [3]: 4.09 h; Tmax [4]: 0.5 h; Cmax [5]: 5140 ng/mL; AUC(0-inf) [6]: 15800 ng·h/mL; MRT [7]: 3.89 h
O=c1nc(N2CCN(NC3CCCCC3)CC2)sc2c([N+](=O)[O-])cc(C(F)(F)F)cc12 | < 0.016 | > 64 | inhibition at 10 µM (hERG (KCNH2)): 20.4%; half-life [3]: 1.28 h; Tmax [4]: 0.583 h; Cmax [5]: 1960 ng/mL; AUC(0-inf) [6]: 4430 ng·h/mL; MRT [7]: 1.47 h

Compound | MIC [1] [µg/mL] | CC50 at 72 h [2] [µg/mL] | further results
O=c1nc(N2CCN(NCc3ccc(Cl)cc3)CC2)sc2c([N+](=O)[O-])cc(C(F)(F)F)cc12 | < 0.016 | > 64 | –
O=c1nc(NN2CCN(Cc3ccc(OC(F)(F)F)cc3)CC2)sc2c([N+](=O)[O-])cc(C(F)(F)F)cc12 | > 1 | – | –
O=C(NN1CCN(c2nc(=O)c3cc(C(F)(F)F)cc([N+](=O)[O-])c3s2)CC1)C1CCCCC1 | 0.473 (≈ 0.974 µM) | – | –
CON=C1CCC(NN2CCN(c3nc(=O)c4cc(C(F)(F)F)cc([N+](=O)[O-])c4s3)CC2)CC1 (stereo unspecified) | 0.028 (≈ 0.0559 µM) | – | –
CC(C)CNN1CCN(c2nc(=O)c3cc(C(F)(F)F)cc([N+](=O)[O-])c3s2)CC1 | 0.0281 (≈ 0.0651 µM) | – | –
C/C(=N\N1CCN(c2nc(=O)c3cc(C(F)(F)F)cc([N+](=O)[O-])c3s2)CC1)c1ccc(OC(F)(F)F)cc1 | < 0.016 | > 64 | –
CC(NN1CCN(c2nc(=O)c3cc(C(F)(F)F)cc([N+](=O)[O-])c3s2)CC1)c1ccc(OC(F)(F)F)cc1 (stereo unspecified) | < 0.016 | > 64 | –
CO[C@H]1/C=C/O[C@@]2(C)Oc3c(C)c(O)c4c(O)c(c(/C=N/N5CCN(C)CC5)c(O)c4c3C2=O)NC(=O)/C(C)=C\C=C\[C@H](C)[C@H](O)[C@@H](C)[C@@H](O)[C@@H](C)[C@H](OC(C)=O)[C@@H]1C [RIFAMPIN] | 0.0382 (≈ 0.0464 µM) | – | –
NNC(=O)c1ccncc1 [ISONIAZID] | 0.0366 (≈ 0.267 µM) | – | –
Cc1ccc(CNN2CCN(c3nc(=O)c4cc(C(F)(F)F)cc([N+](=O)[O-])c4s3)CC2)cc1 | < 0.016 | > 64 | –
O=c1nc(N2CCN(NCC3CCCC3)CC2)sc2c([N+](=O)[O-])cc(C(F)(F)F)cc12 | < 0.016 | > 64 | –
O=c1nc(N2CCN(NCc3ccc(F)cc3)CC2)sc2c([N+](=O)[O-])cc(C(F)(F)F)cc12 | < 0.016 | > 64 | –
CC(c1ccc(OC(F)(F)F)cc1)N(C)N1CCN(c2nc(=O)c3cc(C(F)(F)F)cc([N+](=O)[O-])c3s2)CC1 (stereo unspecified) | < 0.016 | > 64 | inhibition at 10 µM (hERG (KCNH2)): 46.9%; half-life [3]: 3.89 h; Tmax [4]: 0.833 h; Cmax [5]: 944 ng/mL; AUC(0-inf) [6]: 2870 ng·h/mL; MRT [7]: 2.66 h
CON=C1CCC(CN(C)N2CCN(c3nc(=O)c4cc(C(F)(F)F)cc([N+](=O)[O-])c4s3)CC2)CC1 (stereo unspecified) | 0.025 (≈ 0.0473 µM) | – | –
O=C(NN1CCN(c2nc(=O)c3cc(C(F)(F)F)cc([N+](=O)[O-])c3s2)CC1)c1ccc(C(F)(F)F)cc1 | 0.589 (≈ 1.08 µM) | – | –
CC(C)(C)c1ccc(CNN2CCN(c3nc(=O)c4cc(C(F)(F)F)cc([N+](=O)[O-])c4s3)CC2)cc1 | < 0.016 | > 64 | –
CC(C)CN(CC(C)C)N1CCN(c2nc(=O)c3cc(C(F)(F)F)cc([N+](=O)[O-])c3s2)CC1 | < 0.016 | > 64 | –
O=c1nc(N2CCN(Nc3ccc(C(F)(F)F)cc3)CC2)sc2c([N+](=O)[O-])cc(C(F)(F)F)cc12 | < 0.016 | > 64 | –
O=c1nc(N2CCN(NCc3ccc(O)cc3)CC2)sc2c([N+](=O)[O-])cc(C(F)(F)F)cc12 | 0.9 (≈ 1.87 µM) | – | –
O=c1nc(N2CCN(NCc3ccc(C(F)(F)F)cc3)CC2)sc2c([N+](=O)[O-])cc(C(F)(F)F)cc12 | < 0.016 | > 64 | –
O=c1nc(NN2CCN(Cc3ccncc3)CC2)sc2c([N+](=O)[O-])cc(C(F)(F)F)cc12 | > 1 | – | –
CCC(CC)CN(CC(CC)CC)N1CCN(c2nc(=O)c3cc(C(F)(F)F)cc([N+](=O)[O-])c3s2)CC1 | 0.49 (≈ 0.902 µM) | – | –
